How the values were obtained:
IspG [1] = biological target: T1, IspG (Escherichia coli, UniProt P62620); test: protein thermal shift assay; type: binding; details: 200 µM HMBPP, 2 µM protein, 25 mM MOPS pH 7.5, 50 mM NaCl
T1 sequence (P62620 1-372): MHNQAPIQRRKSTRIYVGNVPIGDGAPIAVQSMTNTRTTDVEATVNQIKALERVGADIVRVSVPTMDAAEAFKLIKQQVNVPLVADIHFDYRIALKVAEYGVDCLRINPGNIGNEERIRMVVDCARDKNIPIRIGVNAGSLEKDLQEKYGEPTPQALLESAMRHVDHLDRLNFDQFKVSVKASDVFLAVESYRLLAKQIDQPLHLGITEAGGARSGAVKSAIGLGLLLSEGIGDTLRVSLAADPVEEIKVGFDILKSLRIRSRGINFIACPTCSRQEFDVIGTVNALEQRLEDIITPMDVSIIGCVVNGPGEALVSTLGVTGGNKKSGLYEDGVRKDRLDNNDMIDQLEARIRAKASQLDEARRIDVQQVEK

H-NS = biological target: T2, H-NS (Escherichia coli, UniProt P0ACF8); test: microscale thermophoresis; details: read-out: binding affinity
T2 construct: gene hns
T2 sequence (P0ACF8 2-137): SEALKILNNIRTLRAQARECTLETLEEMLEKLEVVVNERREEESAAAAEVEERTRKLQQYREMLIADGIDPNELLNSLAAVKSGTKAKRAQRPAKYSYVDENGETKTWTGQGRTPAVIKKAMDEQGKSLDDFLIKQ

IspG [2] = biological target: T1, IspG; test: microscale thermophoresis; details: read-out: binding affinity

SMILES | shift in the melting temperature (IspG [1]) | Kd (H-NS) [µM] | Kd (IspG [2]) [µM]
C/C(=C\COP(=O)(O)OP(=O)(O)O)CO [HMBPP] | MEcPP and HMBPP, two known IspG binding metabolites, effectively changed the melting temperature of IspG | – | –
C[C@@]1(CO)OP(=O)(O)OP(=O)(O)OC[C@H]1O [MEcPP] | – | 6.46 ± 2.17 | 29.4 ± 10
